What was measured:
[1] = species on record: Rattus norvegicus; experiment: Evaluated for its ability to inhibit LPS stimulated production of TNF-alpha in rat whole blood; assay type: functional, organism-based
[2] = test system: Rattus norvegicus; experiment: TNF-alpha inhibiting activity by in vivo inhibition of serum TNF production in rat at 50 mg/kg, peroral administration.; assay type: functional; details: route oral
[3] = test system: Rattus norvegicus; experiment: Compound was evaluated for percentage recovery from GAG in adjuvant-induced arthritic model of rat at a dose of 2 mg/kg; assay type: functional
[4] = test system: Rattus norvegicus; experiment: Compound was evaluated for percentage recovery from femur weight in adjuvant-induced arthritic model of rat at a dose of 2 mg/kg; assay type: functional
[5] = test system: Rattus norvegicus; experiment: Compound was evaluated for percentage recovery from paw edema in adjuvant-induced arthritic model of rat at a dose of 2 mg/kg; assay type: functional
[6] = test system: Rattus norvegicus; experiment: Compound was evaluated for percentage recovery from GAG in adjuvant-induced arthritic model of rat at a dose of 10 mg/kg; assay type: functional, organism-based; parameters: dose 10 mg/kg
[7] = test system: Rattus norvegicus; experiment: Compound was evaluated for percentage recovery from femur weight in adjuvant-induced arthritic model of rat at a dose of 10 mg/kg; assay type: functional, organism-based; parameters: dose 10 mg/kg
[8] = test system: Rattus norvegicus; experiment: Compound was evaluated for percentage recovery from paw edema in adjuvant-induced arthritic model of rat at a dose of 10 mg/kg; assay type: functional, organism-based; parameters: dose 10 mg/kg
[9] = test system: Rattus norvegicus; experiment: TNF-alpha inhibiting activity was assessed by In vivo inhibition of serum TNF production in rat, at 50 mg/kg, po; assay type: functional
[10] = test system: Rattus norvegicus; experiment: Compound was evaluated for percentage recovery from paw edema in adjuvant-induced arthritic model of rat at a dose of 50 mg/kg; assay type: functional
[11] = test system: Rattus norvegicus; experiment: Compound was evaluated for percentage recovery from femur weight in adjuvant-induced arthritic model of rat at a dose of 50 mg/kg; assay type: functional
[12] = test system: Rattus norvegicus; experiment: Compound was evaluated for percentage recovery from GAG in adjuvant-induced arthritic model of rat at a dose of 50 mg/kg; assay type: functional

Compound | IC50 [1] [µM] | inhibition in vivo at 50 mg/kg [2] [%] | other results
CCOC(=O)c1c(NC(=O)N2CCSCC2)sc2c1CCN(C(C)=O)C2 | 12 | 20 | –
CCOC(=O)c1c(NC(=O)N2CCN(C)CC2)sc2c1CCN(C(C)=O)C2 | 17 | 40.7 | –
CCOC(=O)c1c(NC(=O)N(CC)C2CCCCC2)sc2c1CCN(C(C)=O)C2 | 12 | 7.6 | –
CCCC(=O)Nc1sc2c(c1C(=O)OCC)CCN(C(C)=O)C2 | 28 | 33.3 | –
CC(=O)N1CCc2c(sc(NC(=O)C(C)C)c2C#N)C1 | 22 | 23.2 | –
CCOC(=O)c1c(NC(=O)C(C)C)sc2c1CCN(C)C2 | 32 | 22.7 | –
CCOC(=O)c1c(NC(=O)N2CCCCC2)sc2c1CCN(C(C)=O)C2 | 13 | 46.8 | –
CCOC(=O)c1c(NC(=O)N2CCOCC2)sc2c1CCN(C(C)=O)C2 | 1 | 90.3 | –
CCOC(=O)c1c(NC(C)=O)sc2c1CCN(C(C)=O)C2 | 13 | 78.4 | –
CCOC(=O)c1c(NC(=O)N2CCNCC2)sc2c1CCN(C(C)=O)C2 | 16 | 51.4 | –
CCCN1CCc2c(sc(NC(=O)C(C)C)c2C(=O)OCC)C1 | 40 | – | –
CCOC(=O)c1c(NC(=O)C(C)C)sc2c1CCN(Cc1ccccc1)C2 | 42 | – | –
CCOC(=O)c1c(NC(=O)C(C)C)sc2c1CCN(C(C)=O)C2 | – | 49.1 | –
COc1ccc2c(c1)c(CC(=O)O)c(C)n2C(=O)c1ccc(Cl)cc1 [INDOMETHACIN] | – | – | GAG [3]: 7.4%; Femur weight [4]: 20%; Paw edema [5]: 72.1%
CCOC(=O)c1c(NC(=O)OCCN2CCOCC2)sc2c1CCN(C(C)=O)C2 | 13 | 57.6 | –
CC(=O)N1CCc2c(sc(NC(=O)C(C)C)c2C(=O)O)C1 | > 100 | – | –
CCOC(=O)c1c(NC(=O)CC(C)C)sc2c1CCN(C(C)=O)C2 | 20 | 33.1 | –
CCOC(=O)c1c(NC(=O)c2cccnc2)sc2c1CCN(C(C)=O)C2 | – | 23.5 | –
AURANOFIN | – | – | GAG [6]: 73%; Femur weight [7]: 17%; Paw edema [8]: -4.7%
CCOC(=O)c1c(NC(=O)N(CC)CC)sc2c1CCN(CC)C2 | 2.2 | – | inhibition in vivo at 50 mg/kg [9]: 88.7%
CCOC(=O)c1c(NC(=O)C(C)C)sc2c1CCSC2 | 34 | 21.2 | –
CCNC(=O)Nc1sc2c(c1C(=O)OCC)CCN(C(C)=O)C2 | 19 | 17 | –

Compound | IC50 [1] [µM] | inhibition in vivo at 50 mg/kg [2] [%] | other results
CCOC(=O)c1c(NC(=O)CC)sc2c1CCN(C(C)=O)C2 | 7.9 | 90.1 | –
CCOC(=O)c1c(NC(=O)CC)sc2c1CCN(CC)C2 | 22 | 9.2 | –
CCOC(=O)c1c(NC(=O)C(C)C)sc2c1CCN(CC)C2 | 15 | 69.2 | –
CCCN(CC1CC1)C(=O)Nc1sc2c(c1C(=O)OCC)CCN(C(C)=O)C2 | 1.3 | 34.8 | –
CCOC(=O)c1c(NC(=O)N(CC)CC)sc2c1CCN(C(C)=O)C2 | 6.2 | 92.3 | Paw edema [10]: 42.5%; Femur weight [11]: 110%; GAG [12]: 119%
CCOC(=O)c1c(N(C)C(=O)CC)sc2c1CCN(C(C)=O)C2 | 9 | 81 | –
CCCCC(=O)Nc1sc2c(c1C(=O)OCC)CCN(C(C)=O)C2 | 18 | 42.9 | –
CCCCC(CC)COC(=O)c1c(NC(=O)C(C)C)sc2c1CCN(C(C)=O)C2 (stereo unspecified) | 10 | 10.6 | –
CCOC(=O)c1c(N(C)C(=O)N(CC)CC)sc2c1CCN(C(C)=O)C2 | 12 | 51.9 | –
CCOC(=O)c1c(NC(=O)C(C)C)sc2c1CCOC2 | 10 | 17.6 | –
CCOC(=O)c1c(NC(=O)C(C)C)sc2c1CCCC2 | 28 | 1.8 | –
CCOC(=O)c1c(NC(=O)C2CC2)sc2c1CCN(C(C)=O)C2 | – | 64.2 | –
CCOC(=O)c1c(NC(=O)NN2CCOCC2)sc2c1CCN(C(C)=O)C2 | 12 | 22.1 | –
CCOC(=O)c1c(NC(=O)Nc2cccnc2)sc2c1CCN(C(C)=O)C2 | 13 | 48.7 | –
CCOC(=O)c1c(NC(=O)N2CCSC2)sc2c1CCN(CC)C2 | 6 | 5.4 | –
CCOC(=O)c1c(NC(=O)N2CCN(C=O)CC2)sc2c1CCN(C(C)=O)C2 | 22 | 41.9 | –
CC(=O)N1CCc2c(sc(NC(=O)C(C)C)c2C(N)=O)C1 | > 100 | – | –
CCOC(=O)c1c(NC(=O)C(C)C)sc2c1CCN(C(=O)c1ccccc1)C2 | 10 | 31.8 | –
CCOC(=O)c1c(NC(=O)NC(Cc2ccccc2)C(=O)OC)sc2c1CCN(C(C)=O)C2 (stereo unspecified) | 0.9 | 8.2 | –
CC(=O)N1CCc2c(sc(NC(=O)C(C)C)c2C(=O)OC(C)C)C1 | 7.1 | 42.1 | –
CCOC(=O)Nc1sc2c(c1C(=O)OCC)CCN(C(C)=O)C2 | 20 | 57.1 | –
CCOC(=O)c1c(NC(=O)C(C)(C)C)sc2c1CCN(C(C)=O)C2 | 11 | 63.7 | –

Source: ChEMBL document CHEMBL1135175, “Synthesis and bioactivities of novel bicyclic thiophenes and 4,5,6,7-tetrahydrothieno[2,3-c]pyridines as inhibitors of tumor necrosis factor-alpha (TNF-alpha) production” (Bioorg Med Chem Lett, 2002)
